Measured values published in BindingDB's records for patent US11547697 (Millennium Pharmaceuticals, 2023).

What was measured:
Experiment in all cases: Inhibition Assay of PI3K
[1] = target: Phosphatidylinositol 4,5-bisphosphate 3-kinase catalytic subunit gamma isoform (Homo sapiens, UniProt P48736)
[2] = target: Phosphatidylinositol 4,5-bisphosphate 3-kinase catalytic subunit beta isoform (Homo sapiens, UniProt P42338)
[3] = target: T1, Phosphatidylinositol 4,5-bisphosphate 3-kinase catalytic subunit delta isoform (Homo sapiens, UniProt O00329)
T1 sequence (O00329 whole entry): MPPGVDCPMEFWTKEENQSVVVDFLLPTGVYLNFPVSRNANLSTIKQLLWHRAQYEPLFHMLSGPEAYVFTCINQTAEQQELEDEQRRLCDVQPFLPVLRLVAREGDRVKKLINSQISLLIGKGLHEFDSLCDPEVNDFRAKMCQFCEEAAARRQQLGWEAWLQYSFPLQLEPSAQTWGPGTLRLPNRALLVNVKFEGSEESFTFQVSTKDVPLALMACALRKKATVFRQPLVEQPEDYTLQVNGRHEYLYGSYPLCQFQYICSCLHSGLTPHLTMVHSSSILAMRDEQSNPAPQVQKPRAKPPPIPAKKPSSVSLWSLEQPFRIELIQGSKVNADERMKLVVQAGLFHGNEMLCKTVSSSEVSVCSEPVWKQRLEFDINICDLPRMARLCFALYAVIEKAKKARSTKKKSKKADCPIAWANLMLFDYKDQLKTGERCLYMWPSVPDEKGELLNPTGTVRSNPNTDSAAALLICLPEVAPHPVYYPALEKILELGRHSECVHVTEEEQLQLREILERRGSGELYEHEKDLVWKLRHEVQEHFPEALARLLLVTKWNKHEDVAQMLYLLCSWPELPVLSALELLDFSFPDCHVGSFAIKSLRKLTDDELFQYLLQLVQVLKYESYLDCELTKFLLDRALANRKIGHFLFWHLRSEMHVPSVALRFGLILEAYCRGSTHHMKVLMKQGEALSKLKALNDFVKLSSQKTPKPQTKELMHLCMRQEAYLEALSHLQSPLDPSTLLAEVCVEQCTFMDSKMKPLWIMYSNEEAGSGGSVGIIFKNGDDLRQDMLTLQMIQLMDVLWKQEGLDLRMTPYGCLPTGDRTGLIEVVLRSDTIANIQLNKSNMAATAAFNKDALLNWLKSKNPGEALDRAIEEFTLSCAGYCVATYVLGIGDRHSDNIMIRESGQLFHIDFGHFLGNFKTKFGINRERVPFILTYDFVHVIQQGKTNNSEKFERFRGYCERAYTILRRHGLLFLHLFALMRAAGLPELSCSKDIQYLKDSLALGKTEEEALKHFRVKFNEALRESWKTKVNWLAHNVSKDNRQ

Phosphatidylinositol 4,5-bisphosphate 3-kinase catalytic subunit beta isoform, sequence (P42338 whole entry, canonical isoform): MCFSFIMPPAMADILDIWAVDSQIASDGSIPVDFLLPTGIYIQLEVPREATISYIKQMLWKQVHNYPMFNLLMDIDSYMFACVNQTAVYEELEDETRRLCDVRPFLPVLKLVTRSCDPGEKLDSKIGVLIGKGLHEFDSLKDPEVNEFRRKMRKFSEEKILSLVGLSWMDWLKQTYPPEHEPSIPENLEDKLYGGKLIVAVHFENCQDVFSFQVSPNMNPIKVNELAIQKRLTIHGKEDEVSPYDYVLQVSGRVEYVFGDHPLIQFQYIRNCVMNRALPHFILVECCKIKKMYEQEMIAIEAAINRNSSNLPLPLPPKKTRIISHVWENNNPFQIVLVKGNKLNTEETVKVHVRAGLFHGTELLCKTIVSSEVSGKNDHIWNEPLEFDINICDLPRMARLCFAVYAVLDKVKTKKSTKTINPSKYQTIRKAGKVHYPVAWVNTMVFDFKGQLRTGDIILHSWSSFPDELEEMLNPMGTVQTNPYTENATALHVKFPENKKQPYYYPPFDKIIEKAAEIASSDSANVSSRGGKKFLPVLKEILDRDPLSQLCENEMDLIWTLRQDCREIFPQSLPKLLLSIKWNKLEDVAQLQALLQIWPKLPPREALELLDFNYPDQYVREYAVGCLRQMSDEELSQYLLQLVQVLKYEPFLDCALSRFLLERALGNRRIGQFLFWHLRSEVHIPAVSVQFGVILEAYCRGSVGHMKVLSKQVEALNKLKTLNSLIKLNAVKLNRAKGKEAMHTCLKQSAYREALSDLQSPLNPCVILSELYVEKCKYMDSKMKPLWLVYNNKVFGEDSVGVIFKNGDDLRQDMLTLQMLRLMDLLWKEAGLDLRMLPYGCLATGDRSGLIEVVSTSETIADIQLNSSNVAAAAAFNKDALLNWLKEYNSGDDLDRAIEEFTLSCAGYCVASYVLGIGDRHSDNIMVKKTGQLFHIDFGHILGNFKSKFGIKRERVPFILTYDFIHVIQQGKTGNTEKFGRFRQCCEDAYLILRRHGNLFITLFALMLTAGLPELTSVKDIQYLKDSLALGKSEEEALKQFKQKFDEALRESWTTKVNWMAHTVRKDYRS
Phosphatidylinositol 4,5-bisphosphate 3-kinase catalytic subunit gamma isoform, sequence (P48736 whole entry, canonical isoform): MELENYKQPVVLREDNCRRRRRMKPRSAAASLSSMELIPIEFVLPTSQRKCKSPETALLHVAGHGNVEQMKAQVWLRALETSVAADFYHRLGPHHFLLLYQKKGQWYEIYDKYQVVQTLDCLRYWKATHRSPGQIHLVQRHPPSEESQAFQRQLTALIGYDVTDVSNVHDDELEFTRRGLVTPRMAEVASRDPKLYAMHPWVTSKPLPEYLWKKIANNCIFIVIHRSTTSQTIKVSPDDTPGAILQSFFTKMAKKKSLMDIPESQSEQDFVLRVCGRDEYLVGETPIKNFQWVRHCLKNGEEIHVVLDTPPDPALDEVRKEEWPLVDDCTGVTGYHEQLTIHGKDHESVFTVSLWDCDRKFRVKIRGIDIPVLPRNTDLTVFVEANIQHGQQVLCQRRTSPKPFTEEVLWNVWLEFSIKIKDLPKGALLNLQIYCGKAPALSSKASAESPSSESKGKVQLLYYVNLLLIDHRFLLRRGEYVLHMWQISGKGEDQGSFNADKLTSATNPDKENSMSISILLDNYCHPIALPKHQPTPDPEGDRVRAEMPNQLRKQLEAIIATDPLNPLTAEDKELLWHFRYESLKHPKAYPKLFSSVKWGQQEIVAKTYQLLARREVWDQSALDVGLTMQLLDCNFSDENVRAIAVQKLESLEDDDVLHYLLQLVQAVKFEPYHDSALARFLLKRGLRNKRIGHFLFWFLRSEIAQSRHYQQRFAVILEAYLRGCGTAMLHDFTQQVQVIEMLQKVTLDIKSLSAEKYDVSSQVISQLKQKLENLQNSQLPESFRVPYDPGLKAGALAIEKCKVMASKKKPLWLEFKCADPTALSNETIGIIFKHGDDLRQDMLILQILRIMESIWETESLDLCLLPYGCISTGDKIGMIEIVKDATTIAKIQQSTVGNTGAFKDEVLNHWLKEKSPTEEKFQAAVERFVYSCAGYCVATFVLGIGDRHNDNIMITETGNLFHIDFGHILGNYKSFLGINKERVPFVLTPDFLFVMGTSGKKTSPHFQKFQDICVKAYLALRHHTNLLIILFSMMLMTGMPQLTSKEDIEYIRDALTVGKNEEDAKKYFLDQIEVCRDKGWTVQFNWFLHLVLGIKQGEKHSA

Row | IC50 [1] [µM] | IC50 [2] [µM] | IC50 [3] [µM] | Compound
1 | > 10 | – | – | CN1CCC(n2cnc3ccc(-c4ccc5oc(N)nc5c4)cc3c2=O)CC1 [US11547697, Compound 36]
2 | > 10 | – | – | CNC(=O)CN1CCN(c2cnc3ccc(-c4ccc5oc(N)nc5c4)cc3n2)CC1 [US11547697, Compound 120]
3 | < 0.1 | – | – | Nc1nc2cc(-c3ccc4ncc(C(=O)NC5CCC(O)CC5)n4c3)ccc2o1 (stereo not drawn) [US11547697, Compound 143]
4 | > 10 | – | – | CN1CCC(N(C)C(=O)c2cnc3ccc(-c4ccc5oc(N)nc5c4)cn23)CC1 [US11547697, Compound 165]
5 | > 10 | – | – | Nc1nc2cc(-c3ccc4ncc(N5CCC(N)CC5)nc4c3)ccc2o1 [US11547697, Compound 168]
6 | > 10 | – | – | CC(C)(N)C(=O)N1CCN(c2cnc3ccc(-c4ccc5oc(N)nc5c4)cc3n2)CC1 [US11547697, Compound 213]
7 | > 10 | – | – | Nc1nc2cc(-c3ccc4ncn(CCCN5CCCC5)c(=O)c4c3)ccc2o1 [US11547697, Compound 271]
8 | – | > 10 | > 10 | Cc1c(-c2ccc3oc(N)nc3c2)ccc2ncc(N3CC(N4CCNCC4)C3)nc12 [US11547697, Compound 386]
9 | – | > 10 | > 10 | Nc1nc2cc(-c3ccc4ncc(N5CCNCC5=O)nc4c3)ccc2o1 [US11547697, Compound 389]
10 | – | > 10 | > 10 | Nc1nc2cc(-c3ccc4ncc(N5CCN(CC(F)(F)F)CC5)nc4c3)ccc2o1 [US11547697, Compound 395]
11 | – | > 10 | > 10 | Cc1cc(-c2ccc3oc(N)nc3c2)cn2c(C(=O)N3CCOCC3)cnc12 [US11547697, Compound 448]
12 | – | > 10 | > 10 | O=C(c1cnc2ccc(-c3cccc(NS(=O)(=O)c4ccccc4)c3)cn12)N1CCOCC1 [US11547697, Compound 453]
13 | – | > 10 | > 10 | COc1ccc(-c2ccc3ncc(C(=O)N4CCOCC4)n3c2)cc1NS(=O)(=O)c1ccccc1 [US11547697, Compound 455]
14 | – | > 10 | > 10 | O=C(c1cnc2ccc(-c3ccc(Cl)c(NS(=O)(=O)c4ccccc4)c3)cn12)N1CCOCC1 [US11547697, Compound 459]
15 | – | > 10 | > 10 | CO[C@@H]1CCN(C(=O)c2cnc3ccc(-c4ccc5oc(N)nc5c4)cn23)C1 [US11547697, Compound 464]
16 | – | > 10 | > 10 | Nc1nc2cc(-c3ccc4ncc(C(=O)N5CC[C@H](N6CCOCC6)C5)n4c3)ccc2o1 [US11547697, Compound 465]
17 | – | > 10 | > 10 | Nc1nc2cc(-c3ccc4ncc(C(=O)N5CCC(F)(F)C5)n4c3)ccc2o1 [US11547697, Compound 471]
18 | – | > 10 | > 10 | Nc1nc2cc(-c3ccc4ncc(C(=O)N5CC(F)(F)C5)n4c3)ccc2o1 [US11547697, Compound 473]
19 | – | > 10 | > 10 | Nc1nc2cc(-c3ccc4ncc(C(=O)N5CC[C@H](F)C5)n4c3)ccc2o1 [US11547697, Compound 476]
20 | – | > 10 | > 10 | CNc1noc2cc(-c3ccc4ncc(C(=O)N5CCOCC5)n4c3)ccc12 [US11547697, Compound 486]
21 | – | > 10 | > 10 | Nc1nc2cc(-c3ccc4ncc(C(=O)N5CCC(N6CC(F)(F)C6)C5)n4c3)ccc2o1 (stereo not drawn) [US11547697, Compound 498]
22 | – | > 10 | > 10 | Nc1nc2cc(-c3ccc4ncc(C(=O)N5CCC6(C5)OCCO6)n4c3)ccc2o1 [US11547697, Compound 499]
23 | – | > 10 | > 10 | Nc1nc2cc(-c3ccc4ncc(C(=O)N5CCC(F)(F)CC5)n4c3)ccc2o1 [US11547697, Compound 501]
24 | – | > 10 | > 10 | Nc1nc2cc(-c3ccc4ncc(C(=O)N5CCC(F)CC5)n4c3)ccc2o1 [US11547697, Compound 503]
25 | – | > 10 | > 10 | CC1(C)CN(C(=O)c2cnc3ccc(-c4ccc5oc(N)nc5c4)cn23)CCO1 [US11547697, Compound 513]
